Measurements as given in patent US9701689B2, “Substituted pyridines and pyridazines as CCR10 receptor inhibitors” (KYOWA HAKKO KIRIN CO., LTD., priority 2012, dated 2017).

Biological target: T1, human CCR10 (Homo sapiens, UniProt P46092)
T1 construct: expressed in transfected cells; host or cells: KJMGER8 cells (Namalwa cell-derived line), beta-estradiol-induced; hCCR10G16 cells
T1 sequence (P46092 1-362): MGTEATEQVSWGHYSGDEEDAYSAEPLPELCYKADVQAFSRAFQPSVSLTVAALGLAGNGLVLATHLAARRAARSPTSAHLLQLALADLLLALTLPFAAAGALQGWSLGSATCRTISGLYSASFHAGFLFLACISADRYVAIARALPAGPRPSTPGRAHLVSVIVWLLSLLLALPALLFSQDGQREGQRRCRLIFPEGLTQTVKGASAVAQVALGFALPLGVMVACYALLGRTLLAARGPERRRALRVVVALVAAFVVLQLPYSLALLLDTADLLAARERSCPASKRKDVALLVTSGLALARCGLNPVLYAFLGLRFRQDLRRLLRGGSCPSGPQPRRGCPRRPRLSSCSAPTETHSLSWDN
Experiment: CCR10 antagonistic effect: calcium assay of human CCR10 (CTACK-induced increase of intracellular calcium in hCCR10G16 cells)
Type: cell-based
Settings: at a concentration of not more than 1000 nmol/L; human CCR10-expressing hCCR10G16 cells, 300 nmol/L CTACK added; read-out: inhibition of increase in the calcium ion concentration
Summary of the method: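 KJMGER8-derived hCCR10G16 cells (CCR10 plus Gα16, induced 24 h with 10 nmol/L β-estradiol), Fluo-3 loaded, preincubated with compound 30 min at 37 °C. Stimulated with CTACK (300 nmol/L solution before addition); calcium read ~5 min by FDSS, max−min fluorescence; % inhibition vs control.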

| Structure (SMILES) | inhibition at up to 1 µM [%] |
| --- | --- |
| CCNC(=O)NS(=O)(=O)c1cc(NCc2ccccc2)c(C(=O)N2CCC(c3ccc(F)cc3)CC2)cn1 [Compound 163, 4-(benzylamino)-N-(ethylcarbamoyl)-5-[4-(4-fluorophenyl)piperidine-1-carbonyl]pyridine-2-sulfonamide] | ≥ 50 |
| CCNC(=O)NS(=O)(=O)c1cc(Nc2cc(C)c(Cl)cc2Cl)c(C(=O)N2CCC(c3ccc(F)cc3)CC2)cn1 [Compound 164, 4-(2,4-dichloro-5-methylphenylamino)-N-(ethylcarbamoyl)-5-[4-(4-fluorophenyl)piperidine-1-carbonyl]pyridine-2-sulfonamide] | ≥ 50 |
| CCCNC(=O)NS(=O)(=O)c1cc(Nc2cc(C)c(Cl)cc2Cl)c(C(=O)N2CCC(c3ccc(F)cc3)CC2)cn1 [Compound 165, 4-(2,4-dichloro-5-methylphenylamino)-5-[4-(4-fluorophenyl)piperidine-1-carbonyl]-N-(propylcarbamoyl)pyridine-2-sulfonamide] | ≥ 50 |
| CCNC(=O)NS(=O)(=O)c1cc(Nc2cc(C)c(Cl)cc2C)c(C(=O)N2CCC(c3ccc(F)cc3)CC2)cn1 [Compound 166, 4-(4-chloro-2,5-dimethylphenylamino)-N-(ethylcarbamoyl)-5-[4-(4-fluorophenyl)piperidine-1-carbonyl]pyridine-2-sulfonamide] | ≥ 50 |
| CCCNC(=O)NS(=O)(=O)c1cc(Nc2cc(C)c(Cl)cc2C)c(C(=O)N2CCC(c3ccc(F)cc3)CC2)cn1 [Compound 167, 4-(4-chloro-2,5-dimethylphenylamino)-5-[4-(4-fluorophenyl)piperidine-1-carbonyl]-N-(propylcarbamoyl)pyridine-2-sulfonamide] | ≥ 50 |
| CCCNC(=O)NS(=O)(=O)c1cc(Nc2ccc(F)cc2C)c(C(=O)N2CCC(c3ccc(F)cc3)CC2)cn1 [Compound 168, 4-(4-fluoro-2-methylphenylamino)-5-[4-(4-fluorophenyl)piperidine-1-carbonyl]-N-(propylcarbamoyl)pyridine-2-sulfonamide] | ≥ 50 |
| CCNC(=O)NS(=O)(=O)c1cc(Nc2ccc(Cl)cc2C)c(C(=O)N2CCC(c3ccc(F)cc3)CC2)cn1 [Compound 169, 4-(4-chloro-2-methylphenylamino)-N-(ethylcarbamoyl)-5-[4-(4-fluorophenyl)piperidine-1-carbonyl]pyridine-2-sulfonamide] | ≥ 50 |
| CCCNC(=O)NS(=O)(=O)c1cc(Nc2ccc(Cl)cc2C)c(C(=O)N2CCC(c3ccc(F)cc3)CC2)cn1 [Compound 170, 4-(4-chloro-2-methylphenylamino)-5-[4-(4-fluorophenyl)piperidine-1-carbonyl]-N-(propylcarbamoyl)pyridine-2-sulfonamide] | ≥ 50 |
| Cc1cc(F)ccc1Nc1cc(S(=O)(=O)NC(=O)NC(C)C)ncc1C(=O)N1CCC(c2ccc(F)cc2)CC1 [Compound 171, 4-(4-fluoro-2-methylphenylamino)-5-[4-(4-fluorophenyl)piperidine-1-carbonyl]-N-(isopropylcarbamoyl)pyridine-2-sulfonamide] | ≥ 50 |
| Cc1cc(F)ccc1Nc1cc(S(=O)(=O)NC(=O)NC2CC2)ncc1C(=O)N1CCC(c2ccc(F)cc2)CC1 [Compound 172, N-(cyclopropylcarbamoyl)-4-(4-fluoro-2-methylphenylamino)-5-[4-(4-fluorophenyl)piperidine-1-carbonyl]pyridine-2-sulfonamide] | ≥ 50 |
| CCOC(=O)NS(=O)(=O)c1cc(Nc2ccc(Cl)cc2C)c(C(=O)N2CCC(c3ccc(F)cc3)CC2)cn1 [Compound 173, ethyl 4-(4-chloro-2-methylphenylamino)-5-[4-(4-fluorophenyl)piperidine-1-carbonyl]pyridin-2-ylsulfonylcarbamate] | ≥ 50 |
| CCOC(=O)NS(=O)(=O)c1cc(Nc2ccc(F)cc2C)c(C(=O)N2CCC(c3ccc(F)cc3)CC2)cn1 [Compound 174, ethyl 4-(4-fluoro-2-methylphenylamino)-5-[4-(4-fluorophenyl)piperidine-1-carbonyl]pyridin-2-ylsulfonylcarbamate] | ≥ 50 |
| Cc1cc(F)ccc1Nc1cc(S(=O)(=O)NC(=O)OC(C)C)ncc1C(=O)N1CCC(c2ccc(F)cc2)CC1 [Compound 175, isopropyl 4-(4-fluoro-2-methylphenylamino)-5-[4-(4-fluorophenyl)piperidine-1-carbonyl]pyridin-2-ylsulfonylcarbamate] | ≥ 50 |
| Cc1cc(Cl)ccc1Nc1c(C(=O)N2CCC(c3ccc(F)cc3)CC2)cnc(S(N)(=O)=O)c1Cl [Compound 177, 3-chloro-4-(4-chloro-2-methylphenylamino)-5-[4-(4-fluorophenyl)piperidine-1-carbonyl]pyridine-2-sulfonamide] | ≥ 50 |
| COc1ccc(Nc2c(C(=O)N3CCC(c4ccc(F)cc4)CC3)cnc(S(N)(=O)=O)c2Cl)c(C)c1 [Compound 178, 3-chloro-5-[4-(4-fluorophenyl)piperidine-1-carbonyl]-4-(4-methoxy-2-methylphenylamino)pyridine-2-sulfonamide] | ≥ 50 |
| COc1ccc(Nc2c(C(=O)N3CCC(c4ccc(F)cc4)CC3)cnc(S(N)(=O)=O)c2Cl)c(Cl)c1 [Compound 179, 3-chloro-4-(2-chloro-4-methoxyphenylamino)-5-[4-(4-fluorophenyl)piperidine-1-carbonyl]pyridine-2-sulfonamide] | ≥ 50 |
| Cc1c(Cl)cccc1Nc1c(C(=O)N2CCC(c3ccc(F)cc3)CC2)cnc(S(N)(=O)=O)c1Cl [Compound 180, 3-chloro-4-(3-chloro-2-methylphenylamino)-5-[4-(4-fluorophenyl)piperidine-1-carbonyl]pyridine-2-sulfonamide] | ≥ 50 |
| Cc1ccc(Nc2c(C(=O)N3CCC(c4ccc(F)cc4)CC3)cnc(S(N)(=O)=O)c2Cl)cc1Cl [Compound 181, 3-chloro-4-(3-chloro-4-methylphenylamino)-5-[4-(4-fluorophenyl)piperidine-1-carbonyl]pyridine-2-sulfonamide] | ≥ 50 |
| NS(=O)(=O)c1ncc(C(=O)N2CCC(c3ccc(F)cc3)CC2)c(Nc2c(F)cccc2F)c1Cl [Compound 182, 3-chloro-4-(2,6-difluorophenylamino)-5-[4-(4-fluorophenyl)piperidine-1-carbonyl]pyridine-2-sulfonamide] | ≥ 50 |
| Cc1cc(F)ccc1Nc1c(C(=O)N2CCC(c3ccc(F)cc3)CC2)cnc(S(=O)(=O)N2CCC(N)CC2)c1Cl [Compound 184, [6-(4-aminopiperidin-1-ylsulfonyl)-5-chloro-4-(4-fluoro-2-methylphenylamino)pyridin-3-yl][4-(4-fluorophenyl)piperidin-1-yl]methanone] | ≥ 50 |
| Cc1cc(F)ccc1Nc1c(C(=O)N2CCC(c3ccc(F)cc3)CC2)cnc(S(=O)(=O)N2C(=O)OCC2(C)C)c1Cl [Compound 187, 3-{3-chloro-4-(4-fluoro-2-methylphenylamino)-5-[4-(4-fluorophenyl)piperidine-1-carbonyl]pyridin-2-ylsulfonyl}-4,4-dimethyloxazolidin-2-one] | ≥ 50 |
| Cc1cc(F)ccc1Nc1c(C(=O)N2CCC(c3ccc(F)cc3)CC2)cnc(S(=O)(=O)Nc2nccs2)c1Cl [Compound 188, 3-chloro-4-(4-fluoro-2-methylphenylamino)-5-[4-(4-fluorophenyl)piperidine-1-carbonyl]-N-(thiazol-2-yl)pyridine-2-sulfonamide] | ≥ 50 |
| Cc1cc(F)ccc1Nc1c(C(=O)N2CCC(c3ccc(F)cc3)CC2)cnc(S(=O)(=O)Nc2c(C)noc2C)c1Cl [Compound 189, 3-chloro-N-(3,5-dimethylisoxazol-4-yl)-4-(4-fluoro-2-methylphenylamino)-5-[4-(4-fluorophenyl)piperidine-1-carbonyl]pyridine-2-sulfonamide] | ≥ 50 |
| Cc1cc(F)ccc1Nc1c(C(=O)N2CCC(c3ccc(F)cc3)CC2)cnc(S(=O)(=O)Nc2ccon2)c1Cl [Compound 190, 3-chloro-4-(4-fluoro-2-methylphenylamino)-5-[4-(4-fluorophenyl)piperidine-1-carbonyl]-N-(isoxazol-3-yl)pyridine-2-sulfonamide] | ≥ 50 |
| Cc1cc(F)ccc1Nc1c(C(=O)N2CCC(c3ccc(F)cc3)CC2)cnc(S(=O)(=O)Nc2ccccc2)c1Cl [Compound 191, 3-chloro-4-(4-fluoro-2-methylphenylamino)-5-[4-(4-fluorophenyl)piperidine-1-carbonyl]-N-phenylpyridine-2-sulfonamide] | ≥ 50 |
| Cc1cc(F)ccc1Nc1c(C(=O)N2CCC(c3ccc(F)cc3)CC2)cnc(S(=O)(=O)n2ccc3ncccc32)c1Cl [Compound 192, [6-(1H-pyrrolo[3,2-b]pyridin-1-ylsulfonyl)-5-chloro-4-(4-fluoro-2-methylphenylamino)pyridin-3-yl][4-(4-fluorophenyl)piperidin-1-yl]methanone] | ≥ 50 |
| CONS(=O)(=O)c1ncc(C(=O)N2CCC(c3ccc(F)cc3)CC2)c(Nc2ccc(F)cc2C)c1Cl [Compound 193, 3-chloro-4-(4-fluoro-2-methylphenylamino)-5-[4-(4-fluorophenyl)piperidine-1-carbonyl]-N-methoxypyridine-2-sulfonamide] | ≥ 50 |
